Experimental data reported in ChEMBL document CHEMBL1201862, “PubChem BioAssay data set” (2004).
Calls of active or inactive are those of the source. For most assays here, no stated cut-off is given here; in the data, actives have a measured IC50 and inactives only a lower limit.

How the values were obtained:
[1] = biological target: T1, Tyrosine-protein phosphatase non-receptor type 7 (Homo sapiens, UniProt P35236); assay type: functional
T1 sequence (P35236 whole entry): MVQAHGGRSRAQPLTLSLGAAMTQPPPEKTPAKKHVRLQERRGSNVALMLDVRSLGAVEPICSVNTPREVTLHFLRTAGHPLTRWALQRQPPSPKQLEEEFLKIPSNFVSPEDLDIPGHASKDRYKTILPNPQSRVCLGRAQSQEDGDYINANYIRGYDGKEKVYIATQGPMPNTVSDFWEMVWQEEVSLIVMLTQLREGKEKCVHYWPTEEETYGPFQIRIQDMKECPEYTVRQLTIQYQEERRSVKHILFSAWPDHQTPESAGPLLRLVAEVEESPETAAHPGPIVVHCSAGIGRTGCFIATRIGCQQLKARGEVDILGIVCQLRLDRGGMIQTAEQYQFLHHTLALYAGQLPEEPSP

[2] = biological target: T2, Corticotropin-releasing factor receptor 2/Corticotropin-releasing factor-binding protein (Homo sapiens, UniProt P24387+Q13324); assay: Dose Response confirmation of uHTS hits for small molecule antagonists of the CRF-binding protein and CRF-R2 receptor complex.; assay type: functional; conditions: read-out: IC50_Mean
T2 sequence (Q13324 whole entry): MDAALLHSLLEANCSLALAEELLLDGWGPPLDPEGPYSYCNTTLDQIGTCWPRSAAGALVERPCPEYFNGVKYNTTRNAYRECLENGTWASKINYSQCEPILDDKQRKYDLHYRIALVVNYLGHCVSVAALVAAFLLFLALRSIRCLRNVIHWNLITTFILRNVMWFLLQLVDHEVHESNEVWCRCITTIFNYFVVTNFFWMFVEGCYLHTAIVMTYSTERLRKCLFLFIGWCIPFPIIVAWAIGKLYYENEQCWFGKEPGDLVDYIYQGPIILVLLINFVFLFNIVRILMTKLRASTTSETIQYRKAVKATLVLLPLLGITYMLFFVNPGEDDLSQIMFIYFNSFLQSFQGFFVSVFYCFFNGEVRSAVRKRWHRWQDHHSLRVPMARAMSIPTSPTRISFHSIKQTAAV
T2 sequence (P24387 whole entry): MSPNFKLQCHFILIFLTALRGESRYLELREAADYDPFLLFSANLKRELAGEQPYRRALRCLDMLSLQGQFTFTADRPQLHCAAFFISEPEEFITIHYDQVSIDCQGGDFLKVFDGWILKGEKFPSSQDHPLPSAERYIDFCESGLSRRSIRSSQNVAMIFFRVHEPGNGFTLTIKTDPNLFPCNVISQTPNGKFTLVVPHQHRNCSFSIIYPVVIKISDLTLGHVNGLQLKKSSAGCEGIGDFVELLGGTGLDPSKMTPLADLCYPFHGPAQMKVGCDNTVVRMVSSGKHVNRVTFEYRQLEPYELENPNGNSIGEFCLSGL

[3] = biological target: T2, Corticotropin-releasing factor receptor 2/Corticotropin-releasing factor-binding protein; assay: activators of CRF receptor 2 with binding protein – uHTS hits, confirmation (AID 602473); assay type: functional; conditions: read-out: EC50_Mean
[4] = biological target: T3, Tyrosine-protein phosphatase non-receptor type 22 (Homo sapiens, UniProt Q9Y2R2); assay type: functional
T3 sequence (Q9Y2R2 whole entry): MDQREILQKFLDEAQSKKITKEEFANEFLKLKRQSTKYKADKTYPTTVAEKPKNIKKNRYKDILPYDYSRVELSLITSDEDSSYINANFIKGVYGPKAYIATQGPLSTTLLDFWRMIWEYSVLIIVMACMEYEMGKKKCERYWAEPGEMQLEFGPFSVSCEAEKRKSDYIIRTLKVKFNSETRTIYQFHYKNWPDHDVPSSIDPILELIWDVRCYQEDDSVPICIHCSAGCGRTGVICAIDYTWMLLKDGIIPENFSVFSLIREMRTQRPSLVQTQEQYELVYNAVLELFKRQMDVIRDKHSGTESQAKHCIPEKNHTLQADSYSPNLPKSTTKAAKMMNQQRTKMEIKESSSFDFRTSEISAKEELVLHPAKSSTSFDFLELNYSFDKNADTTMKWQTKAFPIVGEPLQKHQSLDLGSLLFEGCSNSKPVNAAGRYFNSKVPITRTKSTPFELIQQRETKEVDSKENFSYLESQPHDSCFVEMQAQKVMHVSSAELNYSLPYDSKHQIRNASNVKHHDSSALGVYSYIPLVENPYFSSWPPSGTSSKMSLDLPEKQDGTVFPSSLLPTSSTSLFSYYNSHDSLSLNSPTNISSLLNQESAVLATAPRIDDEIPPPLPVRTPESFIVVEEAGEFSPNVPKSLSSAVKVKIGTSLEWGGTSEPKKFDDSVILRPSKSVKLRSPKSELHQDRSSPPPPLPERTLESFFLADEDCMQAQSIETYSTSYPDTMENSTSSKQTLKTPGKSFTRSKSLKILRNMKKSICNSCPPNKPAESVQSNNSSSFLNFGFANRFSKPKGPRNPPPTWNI

[5] = biological target: T3, Tyrosine-protein phosphatase non-receptor type 22; assay type: functional; remark: listed apart in the source
[6] = cells; assay type: functional
[7] = THP-1 cell cytotoxicity, dose response, cytotoxicity control for non-replicating M. tuberculosis project (AID 489025); assay type: functional
[8] = biological target: T4, Heat shock factor protein 1 (Mus musculus, UniProt P38532); assay: enhancement of HSF1-driven luciferase signal – cell-based, NIH3T3, luminescence, dose retest, confirmation (AID 435004); assay type: functional;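 further: stress induced by proteasome inhibitor MG132 added 30 min after compound; luciferase reporter driven by HSF1 response element in NIH3T3 cells; actives raise luminescence as potentiators of the MG132 stress response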
T4 sequence (P38532 whole entry): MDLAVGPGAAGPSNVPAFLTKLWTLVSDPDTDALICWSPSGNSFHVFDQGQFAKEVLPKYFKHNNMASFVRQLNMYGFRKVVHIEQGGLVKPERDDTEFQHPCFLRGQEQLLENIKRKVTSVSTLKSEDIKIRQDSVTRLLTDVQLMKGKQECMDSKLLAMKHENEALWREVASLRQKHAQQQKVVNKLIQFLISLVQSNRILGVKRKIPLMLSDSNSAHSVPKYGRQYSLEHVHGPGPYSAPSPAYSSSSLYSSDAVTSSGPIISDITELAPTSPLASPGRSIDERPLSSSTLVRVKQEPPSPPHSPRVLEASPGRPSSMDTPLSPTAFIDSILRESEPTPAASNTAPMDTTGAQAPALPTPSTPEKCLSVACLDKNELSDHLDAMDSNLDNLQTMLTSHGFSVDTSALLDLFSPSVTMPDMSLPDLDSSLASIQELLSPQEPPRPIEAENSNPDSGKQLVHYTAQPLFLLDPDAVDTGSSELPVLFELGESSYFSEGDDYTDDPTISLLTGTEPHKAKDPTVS

[9] = Vero E6 cell cytotoxicity, dose response, cytotoxicity control for non-replicating M. tuberculosis project, secondary assay (AID 492998); assay type: functional, VeroE6; conditions: Vero C1008
[10] = biological target: T5, Ubiquitin-conjugating enzyme E2 N (Homo sapiens, UniProt P61088); assay type: functional
T5 sequence (P61088 whole entry): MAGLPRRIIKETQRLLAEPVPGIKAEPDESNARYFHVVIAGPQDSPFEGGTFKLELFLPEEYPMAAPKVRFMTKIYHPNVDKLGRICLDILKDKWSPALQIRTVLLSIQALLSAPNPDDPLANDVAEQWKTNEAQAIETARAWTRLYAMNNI

[11] = biological target: T5, Ubiquitin-conjugating enzyme E2 N; assay type: functional; remark: listed apart in the source
[12] = biological target: T6, Bcl-2-related protein A1 (Mus musculus, UniProt Q07440); assay type: functional;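 further: confirmatory dose–response counterscreen on Bfl-1, used to check hits from a UBC13 polyubiquitin inhibitor campaign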
T6 sequence (Q07440 whole entry): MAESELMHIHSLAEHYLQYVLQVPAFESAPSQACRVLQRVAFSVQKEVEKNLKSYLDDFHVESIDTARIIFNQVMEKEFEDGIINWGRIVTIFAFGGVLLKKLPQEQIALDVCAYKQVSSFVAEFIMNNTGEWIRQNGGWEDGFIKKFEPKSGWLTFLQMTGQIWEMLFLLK

[13] = biological target: T7, Microphthalmia-associated transcription factor (Homo sapiens, UniProt O75030); assay: reducers of TRPM1 reporter luminescence, concentration series – cell-based, SK-MEL-5, cherry-picked, set 3, MITF inhibitor project, dose response (AID 493073); assay type: functional;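 further: SK-MEL-5 melanoma cells with luciferase driven by the MITF target TRPM1 promoter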
T7 sequence (O75030 whole entry): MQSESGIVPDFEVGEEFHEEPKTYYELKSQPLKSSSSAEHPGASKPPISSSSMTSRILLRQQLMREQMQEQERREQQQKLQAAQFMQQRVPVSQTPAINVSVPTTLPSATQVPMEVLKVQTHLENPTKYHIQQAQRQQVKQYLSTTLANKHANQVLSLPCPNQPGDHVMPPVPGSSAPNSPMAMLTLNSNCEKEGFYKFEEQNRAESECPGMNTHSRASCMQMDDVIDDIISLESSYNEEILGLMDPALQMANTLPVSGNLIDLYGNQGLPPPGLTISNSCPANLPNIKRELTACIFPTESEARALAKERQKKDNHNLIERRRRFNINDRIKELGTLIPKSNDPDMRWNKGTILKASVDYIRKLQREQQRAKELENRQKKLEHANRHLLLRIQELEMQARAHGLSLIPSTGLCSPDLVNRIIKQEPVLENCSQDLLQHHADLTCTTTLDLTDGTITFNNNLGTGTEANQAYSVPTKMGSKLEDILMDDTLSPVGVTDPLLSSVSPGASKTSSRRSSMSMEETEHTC

[14] = biological target: Intestinal-type alkaline phosphatase (Homo sapiens, UniProt P09923); assay: inhibition of human intestinal alkaline phosphatase – biochemical, dose response (AID 488876); assay type: functional
[15] = biological target: T8, Alkaline phosphatase, tissue-nonspecific isozyme (Homo sapiens, UniProt P05186); assay: TNAP enzyme inhibition by screening hits, dose response, selectivity assay for mouse IAP inhibitor project, biochemical, human TNAP, uHTS hits (AID 488906); assay type: functional
T8 sequence (P05186 whole entry): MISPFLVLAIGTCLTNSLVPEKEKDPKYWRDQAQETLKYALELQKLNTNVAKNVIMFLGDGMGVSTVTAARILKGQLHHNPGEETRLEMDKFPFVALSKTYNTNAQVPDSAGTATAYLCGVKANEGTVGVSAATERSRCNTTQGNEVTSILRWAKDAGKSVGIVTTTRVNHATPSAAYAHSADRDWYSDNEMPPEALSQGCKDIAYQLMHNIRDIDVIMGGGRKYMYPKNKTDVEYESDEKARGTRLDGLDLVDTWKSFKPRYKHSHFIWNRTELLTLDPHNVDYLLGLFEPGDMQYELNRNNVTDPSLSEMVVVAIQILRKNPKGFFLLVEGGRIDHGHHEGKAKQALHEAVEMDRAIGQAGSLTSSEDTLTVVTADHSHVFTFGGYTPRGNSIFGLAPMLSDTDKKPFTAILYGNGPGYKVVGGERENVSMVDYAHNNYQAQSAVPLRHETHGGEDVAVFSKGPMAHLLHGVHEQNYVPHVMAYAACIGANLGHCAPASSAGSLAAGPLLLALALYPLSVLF

[16] = biological target: Intestinal-type alkaline phosphatase (Mus musculus, UniProt P24822); assay: PubChem AID 488785; assay type: functional
Chain of Intestinal-type alkaline phosphatase (Mus musculus, UniProt P24822) (P24822 whole entry): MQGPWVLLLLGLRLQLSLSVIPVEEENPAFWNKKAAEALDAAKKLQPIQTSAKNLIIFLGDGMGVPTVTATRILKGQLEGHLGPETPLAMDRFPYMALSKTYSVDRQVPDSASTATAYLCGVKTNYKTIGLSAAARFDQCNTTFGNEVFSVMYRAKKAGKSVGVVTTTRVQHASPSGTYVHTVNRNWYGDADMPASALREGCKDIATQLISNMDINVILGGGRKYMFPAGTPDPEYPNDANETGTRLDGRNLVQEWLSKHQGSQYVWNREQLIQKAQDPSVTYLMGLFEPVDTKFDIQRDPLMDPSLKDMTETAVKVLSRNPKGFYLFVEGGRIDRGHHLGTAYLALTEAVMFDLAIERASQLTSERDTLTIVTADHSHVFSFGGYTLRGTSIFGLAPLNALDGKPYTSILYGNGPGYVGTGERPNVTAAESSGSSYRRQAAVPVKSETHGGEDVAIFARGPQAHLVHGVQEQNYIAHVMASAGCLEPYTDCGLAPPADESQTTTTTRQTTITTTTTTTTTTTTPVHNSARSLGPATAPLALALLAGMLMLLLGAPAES

Chain of Intestinal-type alkaline phosphatase (Homo sapiens, UniProt P09923) (P09923 whole entry): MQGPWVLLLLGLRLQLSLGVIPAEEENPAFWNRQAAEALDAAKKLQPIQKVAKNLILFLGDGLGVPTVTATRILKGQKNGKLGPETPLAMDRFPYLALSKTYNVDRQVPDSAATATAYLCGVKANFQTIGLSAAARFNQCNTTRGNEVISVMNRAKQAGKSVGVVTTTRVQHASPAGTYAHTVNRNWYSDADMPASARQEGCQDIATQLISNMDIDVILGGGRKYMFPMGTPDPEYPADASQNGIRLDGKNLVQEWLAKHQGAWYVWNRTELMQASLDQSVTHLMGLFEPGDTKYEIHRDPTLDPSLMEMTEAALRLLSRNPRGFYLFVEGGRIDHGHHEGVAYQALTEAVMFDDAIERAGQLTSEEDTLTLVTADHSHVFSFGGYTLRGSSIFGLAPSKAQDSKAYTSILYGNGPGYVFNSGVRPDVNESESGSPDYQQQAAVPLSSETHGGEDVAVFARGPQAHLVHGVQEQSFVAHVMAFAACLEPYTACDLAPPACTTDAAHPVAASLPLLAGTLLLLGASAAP

CCOc1ccc(C(=O)Nc2ccc(Cl)cn2)cc1Cl
IC50 [1]: > 79.4 µM (inactive) | IC50 [2]: > 47.1 µM (inactive) | EC50 [3]: > 53 µM (inactive) | IC50 [4]: > 79.4 µM (inactive) | IC50 [5]: > 79.4 µM (inactive)

CCOC(=O)NC(=O)C(=CNc1ccc(C)cc1)C(=O)NC(=O)OCC
IC50 [1]: > 79.4 µM (inactive) | IC50 [4]: > 79.4 µM (inactive) | IC50 [5]: > 79.4 µM (inactive)

Cc1ccc(-c2cc(C(F)F)nc(S(C)(=O)=O)n2)cc1
IC50 [6]: 7.88 µM (active) | CC50 [7]: 23.9 µM (active) | EC50 [8]: 13.1 µM (active) | CC50 [9]: > 20 µM (active)

Cc1ccc(CN2CCC(CNC(=O)c3ccc(NC(=O)C4=CSCCO4)cc3)CC2)cc1
IC50 [10]: > 20 µM (inactive) | IC50 [11]: 19.4 µM (active) | IC50 [12]: > 20 µM (inactive)

Cc1cc(NC(=O)Cn2c(=O)n(CCCCC(=O)NC3CCN(Cc4ccccc4)CC3)c(=O)c3ccccc32)[nH]n1
IC50 [1]: > 79.4 µM (inactive) | IC50 [4]: > 79.4 µM (inactive) | IC50 [11]: > 20 µM (inactive) | IC50 [5]: > 79.4 µM (inactive)

O=C(CNC(=O)c1cccc(F)c1)N/N=C/c1ccc([N+](=O)[O-])s1
AC50 [13]: 7.45 µM (active) | IC50 [6]: 30.7 µM (active) | CC50 [7]: 28 µM (active) | CC50 [9]: > 20 µM (active)

O=[N+]([O-])c1cc(Br)cc(/C=N/n2cnnc2)c1O
IC50 [1]: > 79.4 µM (inactive) | IC50 [4]: > 79.4 µM (inactive) | IC50 [5]: > 79.4 µM (inactive)

Cc1cc(F)ccc1S(=O)(=O)Nc1ccc(O)c(Sc2nnc[nH]2)c1
IC50 [14]: 2.12 µM (active) | IC50 [15]: 5.44 µM (active) | IC50 [16]: 2.3 µM (active)
